MIC data for 14 compounds are collected here from ChEMBL document CHEMBL1649187, “New plasmid-mediated quinolone resistance gene, qnrC, found in a clinical isolate of Proteus mirabilis” (2009).

Common to all, as to assay type: functional
The test system of test [1] is Escherichia coli. The experiment in a line: Antimicrobial activity against Escherichia coli J53 transconjugated with Proteus mirabilis pHS10 carrying qnrC gene by CLSI agar dilution method. For orientation: Agar dilution tests growth on a series of plates holding different concentrations.
Test [2] relates to Proteus mirabilis. In words: Antimicrobial activity against Proteus mirabilis 06-489 isolated from infected human urinary tract by CLSI agar dilution method.
Test [3] deals with Escherichia coli. The experiment in a line: Antimicrobial activity against Escherichia coli J53 by CLSI agar dilution method.
The test system of test [4] is Escherichia coli. In words: Antimicrobial activity against Escherichia coli ATCC 25922 by CLSI agar dilution method.
Test [5] deals with Escherichia coli. In words: Antimicrobial activity against Escherichia coli J53 transconjugated with Proteus mirabilis pHS10 carrying qnrC gene by Etest.
Test [6] concerns Proteus mirabilis. In words: Antimicrobial activity against Proteus mirabilis 06-489 isolated from infected human urinary tract by Etest. As to conditions: 06-489, Urine.
Test [7] concerns Escherichia coli. The experiment in a line: Antimicrobial activity against Escherichia coli J53 by Etest.
Test [8] has as its system Escherichia coli. The experiment in a line: Antimicrobial activity against Escherichia coli TOP10 harboring pHS12 carrying ATT to TTA substituted qnrC gene by CLSI agar dilution method.
The subject of test [9] is Escherichia coli. In words: Antimicrobial activity against Escherichia coli TOP10 harboring pHS12 carrying ATT to ATG substituted qnrC gene by CLSI agar dilution method.
The test system of test [10] is Escherichia coli. In words: Antimicrobial activity against Escherichia coli TOP10 harboring pHS12 carrying qnrC gene by CLSI agar dilution method.
The subject of test [11] is Escherichia coli. The experiment in a line: Antimicrobial activity against Escherichia coli TOP10 harboring pHS12 carrying TTG to TTA substituted qnrC gene by CLSI agar dilution method.
In test [12] the test system is Escherichia coli. In words: Antimicrobial activity against Escherichia coli TOP10 harboring pHS12 carrying TTG to ATG substituted qnrC gene by CLSI agar dilution method.
Test [13] concerns Escherichia coli. The experiment in a line: Antimicrobial activity against Escherichia coli TOP10 harboring pHS12 carrying ATG to ACG substituted qnrC gene by CLSI agar dilution method.
The test system of test [14] is Escherichia coli. The experiment in a line: Antimicrobial activity against Escherichia coli TOP10 harboring pHS12 carrying TTG to TCG substituted qnrC gene by CLSI agar dilution method.

One may read the MIC as the least concentration at which growth counts as inhibited.

In brackets after ≈: the same amount, converted by molar mass.

Regarding `CC1(C)S[C@@H]2[C@H](NC(=O)[C@H](N)c3ccccc3)C(=O)N2[C@H]1C(=O)O` [AMPICILLIN], the MIC in the test on Escherichia coli [1] came out at 128 µg/mL (≈ 366 µM); with Proteus mirabilis [2] (06-489, Urine), 64 µg/mL (≈ 183 µM); in the test on Escherichia coli [3], 4 µg/mL (≈ 11.4 µM).
The corresponding values for `NCC[C@H](O)C(=O)N[C@@H]1C[C@H](N)[C@@H](O[C@H]2O[C@H](CN)[C@@H](O)[C@H](O)[C@H]2O)[C@H](O)[C@H]1O[C@H]1O[C@H](CO)[C@@H](O)[C@H](N)[C@H]1O` [AMIKACIN] are 0.5 µg/mL (≈ 0.854 µM), 8 µg/mL (≈ 13.7 µM) and 0.25 µg/mL (≈ 0.427 µM).
For `CCn1cc(C(=O)O)c(=O)c2ccc(C)nc21` [NALIDIXIC ACID], the MIC in the test with Escherichia coli [4] stood at 1 µg/mL (≈ 4.31 µM); against Escherichia coli [5], 16 µg/mL (≈ 68.9 µM); with Proteus mirabilis [6], 16 µg/mL (≈ 68.9 µM); against Escherichia coli [7], 4 µg/mL (≈ 17.2 µM); in the test on Escherichia coli [8], 3 µg/mL (≈ 12.9 µM); against Escherichia coli [9], 4 µg/mL (≈ 17.2 µM). In addition, the minimal inhibitory concentration (MIC) against Escherichia coli [10] was found to be 4 µg/mL (≈ 17.2 µM); against Escherichia coli [11], 1 µg/mL (≈ 4.31 µM); against Escherichia coli [12], 4 µg/mL (≈ 17.2 µM); against Escherichia coli [13], 4 µg/mL (≈ 17.2 µM); against Escherichia coli [14] it was 1.5 µg/mL (≈ 6.46 µM).
As for `CO/N=C(\C(=O)N[C@@H]1C(=O)N2C(C(=O)O)=C(COC(C)=O)CS[C@H]12)c1csc(N)n1` [CEFOTAXIME], the MIC against Escherichia coli [1] was not above 0.06 µg/mL; in the test with Proteus mirabilis [2] (06-489, Urine) it was not above 0.06 µg/mL; against Escherichia coli [3], not above 0.06 µg/mL.
`O=C(N[C@H](CO)[C@H](O)c1ccc([N+](=O)[O-])cc1)C(Cl)Cl` [CHLORAMPHENICOL]: the MIC in the test with Escherichia coli [1] was found to be 64 µg/mL (≈ 198 µM); against Proteus mirabilis [2] (06-489, Urine), 16 µg/mL (≈ 49.5 µM); in the test on Escherichia coli [3], 8 µg/mL (≈ 24.8 µM).
The corresponding values for `CO/N=C(\C(=O)N[C@@H]1C(=O)N2C(C(=O)O)=C(COC(N)=O)CS[C@H]12)c1ccco1` [CEFUROXIME] are 8 µg/mL (≈ 18.9 µM), 4 µg/mL (≈ 9.43 µM) and 8 µg/mL (≈ 18.9 µM).
On the same counts, the results for `CN(C)[C@@H]1C(O)=C(C(N)=O)C(=O)[C@@]2(O)C(O)=C3C(=O)c4c(O)cccc4[C@@](C)(O)[C@H]3C[C@@H]12` [TETRACYCLINE] are 128 µg/mL (≈ 288 µM), 128 µg/mL (≈ 288 µM) and 1 µg/mL (≈ 2.25 µM).
Turning to `C[C@H]1COc2c(N3CCN(C)CC3)c(F)cc3c(=O)c(C(=O)O)cn1c23.C[C@H]1COc2c(N3CCN(C)CC3)c(F)cc3c(=O)c(C(=O)O)cn1c23.O` [LEVOFLOXACIN], the MIC was 0.006 µg/mL in the test on Escherichia coli [4]; 0.25 µg/mL against Escherichia coli [5]; 0.5 µg/mL against Proteus mirabilis [6]; 0.023 µg/mL against Escherichia coli [7]; 0.125 µg/mL against Escherichia coli [8]; 0.125 µg/mL in the test with Escherichia coli [9]. The MIC with Escherichia coli [10] was determined as 0.19 µg/mL; against Escherichia coli [11], 0.006 µg/mL; in the test on Escherichia coli [12], 0.19 µg/mL; with Escherichia coli [13], 0.19 µg/mL.
Take `CC(C)(O/N=C(\C(=O)N[C@@H]1C(=O)N2C(C(=O)[O-])=C(C[n+]3ccccc3)CS[C@H]12)c1csc(N)n1)C(=O)O` [CEFTAZIDIME]: the MIC was 0.06 µg/mL (≈ 0.11 µM) against Escherichia coli [1]; not above 0.06 µg/mL in the test with Proteus mirabilis [2] (06-489, Urine); not above 0.06 µg/mL in the test with Escherichia coli [3].
For the compound `CO[C@@]1(NC(=O)Cc2cccs2)C(=O)N2C(C(=O)O)=C(COC(N)=O)CS[C@@H]21` [CEFOXITIN], the MIC in the test with Escherichia coli [1] came to 4 µg/mL (≈ 9.36 µM); in the test on Proteus mirabilis [2] (06-489, Urine), 2 µg/mL (≈ 4.68 µM); against Escherichia coli [3] it was 4 µg/mL (≈ 9.36 µM).
In the case of GENTAMICIN, the values for the MIC against Escherichia coli [1], against Proteus mirabilis [2] (Urine) and against Escherichia coli [3] were 4 µg/mL, 16 µg/mL and 0.125 µg/mL, respectively.
As to `COc1cc(Cc2cnc(N)nc2N)cc(OC)c1OC` [TRIMETHOPRIM], the MIC was more than 128 µg/mL with Escherichia coli [1]; more than 128 µg/mL in the test on Proteus mirabilis [2] (06-489, Urine); 0.25 µg/mL (≈ 0.861 µM) against Escherichia coli [3].
In turn, `O=C(O)c1cn(C2CC2)c2cc(N3CCNCC3)c(F)cc2c1=O` [CIPROFLOXACIN] showed an MIC against Proteus mirabilis [6] of 0.25 µg/mL (≈ 0.754 µM).
As for `Cc1cc(NS(=O)(=O)c2ccc(N)cc2)no1` [SULFAMETHOXAZOLE], the MIC against Escherichia coli [1] was more than 1020 µg/mL; in the test with Proteus mirabilis [2] (06-489, Urine), more than 1020 µg/mL; in the test with Escherichia coli [3] it was 16 µg/mL (≈ 63.2 µM).
